The values that follow come from patent US20240018132A1, “5-HYDROXY-1,4-NAPHTHALENEDIONE FOR USE IN THE TREATMENT OF CANCER” (GODAVARI BIOREFINERIES LIMITED, priority 2020, published 2024).

Series [1] has as its system MDAMB231. Kind of series: In vitro antiproliferative assay (MTT assay), breast cancer cell line. The class given is cell-based. As to conditions: MTT assay, breast cancer MDAMB231, 48 hrs drug incubation. In a few lines: (§1)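 Metabolic reduction of MTT served as the growth measure. Plated cells rested 24 h, received compound for 48 h at 37 °C under 5% CO2, then MTT at 0.5 mg/ml for 4 h before DMSO solubilization.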

Series [2] has as its system PC3. Put plainly: In vitro antiproliferative assay (MTT assay), prostate cancer cell line. Type of series: cell-based. The conditions noted are these: MTT assay, prostate cancer PC3, 48 hrs drug incubation. In a few lines:
as §1

The subject of series [3] is MDAMB231. As to conditions: human, 216 h.
Series [4] has as its system PC3. The conditions noted are these: human, 216 h.
In series [5] the test system is MDAMB231. Put plainly: In vitro sphere-forming assay (cancer stem cells), Mammosphere media. As to conditions: Mammosphere media, 2000 cells/well, n = 6 ± S.D.
Series [6] relates to PC3. Put plainly: In vitro sphere-forming assay (cancer stem cells), Prostosphere media. The conditions noted are these: Prostosphere media, 2000 cells/well, n = 6 ± S.D.

Like-named read-outs stand apart in the source and are kept apart here.

For the compound `COc1ccc(OC2=CC(=O)c3c(OCCN4CCOCC4)cccc3C2=O)cc1` [Formula 81], the IC50 in series [1] was 0.631 µM; in series [2], 2.19 µM. Moreover, the “% Viability of spheres (MDAMB231)” value in series [3] (0.0025 uM) is 82(±4) %; in series [3] (0.025 uM) it was 61(±3) %; in series [3] (0.25 uM) it was 46(±3) %; in series [3] (2.5 uM), 33(±4) %; in series [3] (25 uM) it was 21(±3) %. The “% Viability of spheres (PC3)” value was 75(±4) % in series [4] (0.0025 uM); 57(±5) % in series [4] (0.025 uM); 46(±4) % in series [4] (0.25 uM); 30(±4) % in series [4] (2.5 uM); 21(±3) % in series [4] (25 uM). Further, the “3D sphere count of MDAMB231” value was 82(±4) in series [5] (drug 0.0025 uM); 61(±3) in series [5] (drug 0.025 uM); 46(±3) in series [5] (drug 0.25 uM); 33(±4) in series [5] (drug 2.5 uM); 21(±3) in series [5] (drug 25 uM). The “3D sphere count of PC3” value in series [6] (drug 0.0025 uM) is listed as 75(±4); in series [6] (drug 0.025 uM), 57(±5); in series [6] (drug 0.25 uM) it was 46(±4); in series [6] (drug 2.5 uM) it was 30(±4); in series [6] (drug 25 uM), 21(±3).
